The subject of one assay is P. aeruginosa ATCC 10145. Conditions: CFU assay, 10 mM NaP.
Assay [1] concerns Klebsiella pneumonia ATCC 700603. Conditions: MDR strain; CLSI, Mueller–Hinton broth, 5 × 10^5 CFU/mL, 18 h 37 °C, by CO-ADD.
Assay [2] deals with Corynebacterium simulans DSM 44415. In words: CFU assay of antimicrobial activity. The class given is cell-based. Particulars: 10 mM NaP, pH 7.3, 1% TSB. As to the method:
All purified peptides and recombinant proteins were applied using a colony forming unit (CFU) assay in different media. Bacteria were grown to early log-phase in BHI, washed either with 10 mM Na-P, pH 7.4/1% TSB or pH 5.5/1% TSB, or pH 5.5 without TSB or BHI, and adjusted to a concentration of 10^4–10^5 colony forming units (CFU)/ml. For cell number control, 100 µl aliquots were diluted 1:10, 1:100 and 1:1000 and plated in duplicates on BHI agar plates. […]
Then bacteria were incubated for 2 h at ambient temperature, if not otherwise stated. 10 µl of 0.01% (v/v) acetic acid, added to 100 µl aliquots of the bacteria in the respective medium, served as negative control. From each test, 1:10 and 1:100 dilutions were generated and plated as duplicates of 100 µl aliquots on BHI agar plates. After 16 h incubation at 37 °C, CFU were counted using a colony counter (Bio Kobe, Japan) and expressed as mean of the duplicate estimation to achieve a complete dose-response curve. All experiments were performed at serial dilutions in a concentration range of 100 µg/mL −25 ng/mL for recombinant HRNR fragments and 300 or 150 µg/mL–19 ng/mL for synthetic peptides.

Assay [3] concerns Staphylococcus aureus ATCC 43300. Particulars: MRSA; CLSI, Mueller–Hinton broth, 5 × 10^5 CFU/mL, 18 h 37 °C, by CO-ADD.
A further assay has as its system S. aureus ATCC 6538. Particulars: CFU assay.
For assay [4], the system named is Acinetobacter baumannii ATCC 19606. In words: CO-ADD MIC, broth microdilution (CLSI). The class given is cell-based. Conditions: Mueller–Hinton broth, 5 × 10^5 CFU/mL, 18 h 37 °C, by CO-ADD. The source says:
(§1) They were defined as the lowest peptide
(§2) Further details of the screening

Assay [5] has as its system Pseudomonas aeruginosa ATCC 27853. Put plainly: CO-ADD MIC, broth microdilution (CLSI). The class given is cell-based. Particulars: Mueller–Hinton broth, 5 × 10^5 CFU/mL, 18 h 37 °C, by CO-ADD.
Description: as §1, §2
(In broth dilution the organism is exposed to a series of concentrations in liquid medium.)

The next assay concerns E. coli ATCC 11775. In words: CFU assay of antimicrobial activity. The class given is cell-based, Escherichia coli. Conditions: 10 mM NaP. Summed up: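 Early log-phase bacteria grown in BHI were exposed at 10^4–10^5 CFU/ml for 2 h at ambient temperature. Two-fold serial dilutions spanned 300 or 150 µg/mL–19 ng/mL (synthetic peptides) or 100 µg/mL–25 ng/mL (recombinant HRNR fragments), and colonies were counted after 16 h at 37 °C.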

The test system of assay [6] is Clostridium perfringens ATCC 13124. Conditions: CFU assay, 10 mM NaP.
Another assay relates to E. coli ATCC 25922. Put plainly: CO-ADD MIC, broth microdilution (CLSI). The class given is cell-based, Escherichia coli. Particulars: Mueller–Hinton broth, 5 × 10^5 CFU/mL, 18 h 37 °C, by CO-ADD.
Description: as §1, §2

Assay [7] deals with Staphylococcus hominis ATCC 27844. Conditions: CFU assay, 10 mM NaP, pH 7.3, 1% TSB.

The results in this text go back to article PMC6399351, “Cationic Intrinsically Disordered Antimicrobial Peptides (CIDAMPs) Represent a New Paradigm of Innate Defense with a Potential for Novel Anti-Infectives” (Scientific Reports, 2019).

Molecules are shown by their SMILES. ≈ marks a conversion by molar mass, not a printed value. Where “and” joins values, the source holds several entries; their conditions need not be identical. Equal values may be shown once. Read-outs that look alike come from different tables or passages of the source. Peptide text beside a SMILES is read from it. * marks the point of attachment. Palmitoyl = CCCCCCCCCCCCCCCC(=O)*

With `CCCCCCCCCCCCCCCC(=O)NCC(=O)N[C@@H](CCCNC(=N)N)C(=O)N[C@@H](CCCNC(=N)N)C(=O)NCC(=O)NCC(=O)N[C@@H](CCCNC(=N)N)C(=O)NCC(=O)NCC(=O)N[C@@H](CCCNC(=N)N)C(=O)NCC(=O)N[C@@H](CCCNC(=N)N)C(=O)NCC(=O)N[C@@H](CCCNC(=N)N)C(=O)O` [Pal-GR13] (Palmitoyl-GRRGGRGGRGRGR-OH), the LD90 in the assay with P. aeruginosa ATCC 10145 (pH 5.5, 0.25% glucose) is 0.075 µg/mL; in the assay on P. aeruginosa ATCC 10145 (pH 7.3, 1% TSB), 0.3 µg/mL; in assay [2] it was 0.59 µg/mL; in the assay with S. aureus ATCC 6538 (10 mM NaP, pH 5.5, 0.25% glucose), 0.075 µg/mL and 0.15 µg/mL; in the assay with S. aureus ATCC 6538 (10 mM NaP, pH 5.5, 1% TSB), 0.3 µg/mL; with S. aureus ATCC 6538 (10 mM NaP, pH 7.3, 1% TSB) it was 0.3 µg/mL. The LD90 in the assay with S. aureus ATCC 6538 (value in molar units) stood at 47 nM; with E. coli ATCC 11775 (pH 5.5, 0.25% glucose), 0.15 µg/mL; in the assay with E. coli ATCC 11775 (pH 7.3, 1% TSB) it was 1.18 µg/mL; in [6] (pH 5.5, 0.25% glucose), 37.5 µg/mL; in [6] (pH 7.3, 0.25% glucose), 4.7 µg/mL; in [6] (pH 7.3, 1% TSB) it was 18.75 µg/mL. In assay [7], the LD90 was determined as 1.18 µg/mL. Also, the “Minimal inhibitory concentration (MIC)” value was no less than 16 mg/L in assay [1]; 0.25 mg/L (≈ 0.157 µM) in assay [3]; 2 mg/L (≈ 1.26 µM) in assay [4]; 8 mg/L (≈ 5.02 µM) in assay [5]; 4 mg/L (≈ 2.51 µM) in the assay on E. coli ATCC 25922.
